Measurements published in the supplement of paper PMC10307832.

Tests used:
Test in all cases: relative viability (nuclei count vs DMSO), 5 days (fraction); higher = more cells survive
COR-L 105 = tested on: COR-L 105
How it was run: (§1)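 Lung cancer cell lines in 1536-well plates were dosed by pin tool the day after seeding, either with one drug alone or with a fixed anchor-drug dose plus five library-drug doses (not always all listed) in √10 steps. After 5 days, cells were fixed and their nuclei stained in one step (final 0.05% Triton X-100, 1% formaldehyde, 1 ug/ml Hoechst), then counted on 4× images. Relative viability is the nuclei count in treated wells divided by that in vehicle wells. Values are medians of duplicate plates.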

COR-L23 = tested on: COR-L23
How it was run: as §1

EKVX = tested on: EKVX
How it was run: as §1

HARA = tested on: HARA
How it was run: as §1

HOP-62 = tested on: HOP-62
How it was run: as §1

NCI-H1355 = tested on: NCI-H1355
How it was run: as §1

NCI-H1395 = tested on: NCI-H1395
How it was run: as §1

NCI-H1734 = tested on: NCI-H1734
How it was run: as §1

NCI-H1755 = tested on: NCI-H1755
How it was run: as §1

NCI-H1793 = tested on: NCI-H1793
How it was run: as §1

NCI-H1993 = tested on: NCI-H1993
How it was run: as §1

NCI-H2009 = tested on: NCI-H2009
How it was run: as §1

NCI-H2228 = tested on: NCI-H2228
How it was run: as §1

NCI-H2347 = tested on: NCI-H2347
How it was run: as §1

NCI-H322M = tested on: NCI-H322M
How it was run: as §1

NCI-H358 = tested on: NCI-H358
How it was run: as §1

NCI-H647 = tested on: NCI-H647
How it was run: as §1

NCI-H838 = tested on: NCI-H838
How it was run: as §1

PC-14 = tested on: PC-14
How it was run: as §1

SK-MES-1 = tested on: SK-MES-1
How it was run: as §1

UMC-11 = tested on: UMC-11
How it was run: as §1

C[C@@H]1CN(CC(=O)Nc2ccc3c(c2)Cc2cccc(-c4cc(=O)cc(N5CCOCC5)o4)c2S3)C[C@H](C)O1 + C[C@]1(O)C[C@@H](c2nc(-c3ccc4ccc(-c5ccccc5)nc4c3)c3c(N)nccn32)C1 [Linsitinib] (partner 1 µM)
relative viability (COR-L 105; first compound 0.04 µM): 1.01 | relative viability (COR-L 105; first compound 0.1265 µM): 1.1 | relative viability (COR-L 105; first compound 0.4 µM): 0.746 | relative viability (COR-L 105; first compound 4 µM): 0.996 | relative viability (COR-L23; first compound 0.04 µM): 0.97 | relative viability (COR-L23; first compound 0.1265 µM): 0.878 | relative viability (COR-L23; first compound 0.4 µM): 0.936 | relative viability (COR-L23; first compound 4 µM): 0.796 | relative viability (EKVX; first compound 0.04 µM): 0.954 | relative viability (EKVX; first compound 0.1265 µM): 0.982 | relative viability (EKVX; first compound 0.4 µM): 0.963 | relative viability (EKVX; first compound 4 µM): 0.972 | relative viability (HARA; first compound 0.04 µM): 0.997 | relative viability (HARA; first compound 0.1265 µM): 0.876 | relative viability (HARA; first compound 0.4 µM): 0.893 | relative viability (HARA; first compound 4 µM): 0.906 | relative viability (HOP-62; first compound 0.04 µM): 0.93 | relative viability (HOP-62; first compound 0.1265 µM): 0.945 | relative viability (HOP-62; first compound 0.4 µM): 0.897 | relative viability (HOP-62; first compound 4 µM): 0.947 | relative viability (NCI-H1355; first compound 0.04 µM): 0.857 | relative viability (NCI-H1355; first compound 0.1265 µM): 0.792 | relative viability (NCI-H1355; first compound 0.4 µM): 0.866 | relative viability (NCI-H1355; first compound 4 µM): 0.815 | relative viability (NCI-H1395; first compound 0.04 µM): 1.14 | relative viability (NCI-H1395; first compound 0.1265 µM): 1.16 | relative viability (NCI-H1395; first compound 0.4 µM): 0.992 | relative viability (NCI-H1395; first compound 4 µM): 0.953 | relative viability (NCI-H1734; first compound 0.04 µM): 1.01 | relative viability (NCI-H1734; first compound 0.1265 µM): 0.85 | relative viability (NCI-H1734; first compound 0.4 µM): 0.801 | relative viability (NCI-H1734; first compound 4 µM): 0.92 | relative viability (NCI-H1755; first compound 0.04 µM): 1.01 | relative viability (NCI-H1755; first compound 0.1265 µM): 0.913 | relative viability (NCI-H1755; first compound 0.4 µM): 0.955 | relative viability (NCI-H1755; first compound 4 µM): 0.941 | relative viability (NCI-H1793; first compound 0.04 µM): 1.02 | relative viability (NCI-H1793; first compound 0.1265 µM): 0.695 | relative viability (NCI-H1793; first compound 0.4 µM): 0.779 | relative viability (NCI-H1793; first compound 4 µM): 0.445 | relative viability (NCI-H1993; first compound 0.04 µM): 0.716 | relative viability (NCI-H1993; first compound 0.1265 µM): 0.733 | relative viability (NCI-H1993; first compound 0.4 µM): 0.848 | relative viability (NCI-H1993; first compound 4 µM): 0.805 | relative viability (NCI-H2009; first compound 0.04 µM): 1.24 | relative viability (NCI-H2009; first compound 0.1265 µM): 1.13 | relative viability (NCI-H2009; first compound 0.4 µM): 1.1 | relative viability (NCI-H2009; first compound 4 µM): 0.961 | relative viability (NCI-H2228; first compound 0.04 µM): 0.685 | relative viability (NCI-H2228; first compound 0.1265 µM): 0.731 | relative viability (NCI-H2228; first compound 0.4 µM): 0.34 | relative viability (NCI-H2228; first compound 4 µM): 0.334 | relative viability (NCI-H2347; first compound 0.04 µM): 0.883 | relative viability (NCI-H2347; first compound 0.1265 µM): 1.05 | relative viability (NCI-H2347; first compound 0.4 µM): 1.01 | relative viability (NCI-H2347; first compound 4 µM): 1.02 | relative viability (NCI-H322M; first compound 0.04 µM): 1.01 | relative viability (NCI-H322M; first compound 0.1265 µM): 0.847 | relative viability (NCI-H322M; first compound 0.4 µM): 0.857 | relative viability (NCI-H322M; first compound 4 µM): 0.79 | relative viability (NCI-H358; first compound 0.04 µM): 0.854 | relative viability (NCI-H358; first compound 0.1265 µM): 0.733 | relative viability (NCI-H358; first compound 0.4 µM): 0.703 | relative viability (NCI-H358; first compound 4 µM): 0.487 | relative viability (NCI-H647; first compound 0.04 µM): 1.28 | relative viability (NCI-H647; first compound 0.1265 µM): 1.12 | relative viability (NCI-H647; first compound 0.4 µM): 0.926 | relative viability (NCI-H647; first compound 4 µM): 0.76 | relative viability (NCI-H838; first compound 0.04 µM): 0.931 | relative viability (NCI-H838; first compound 0.1265 µM): 0.984 | relative viability (NCI-H838; first compound 0.4 µM): 0.871 | relative viability (NCI-H838; first compound 4 µM): 0.688 | relative viability (PC-14; first compound 0.04 µM): 0.963 | relative viability (PC-14; first compound 0.1265 µM): 0.902 | relative viability (PC-14; first compound 0.4 µM): 0.937 | relative viability (PC-14; first compound 4 µM): 0.754 | relative viability (SK-MES-1; first compound 0.04 µM): 1.13 | relative viability (SK-MES-1; first compound 0.1265 µM): 1.06 | relative viability (SK-MES-1; first compound 0.4 µM): 1.02 | relative viability (SK-MES-1; first compound 4 µM): 0.836 | relative viability (UMC-11; first compound 0.04 µM): 0.997 | relative viability (UMC-11; first compound 0.1265 µM): 0.993 | relative viability (UMC-11; first compound 0.4 µM): 1.05 | relative viability (UMC-11; first compound 4 µM): 0.857

CC(C)Oc1cc(Nc2nc(N[C@@H](C)c3ccc(F)cn3)ncc2Cl)n[nH]1 [AZ23] + C[C@]1(O)C[C@@H](c2nc(-c3ccc4ccc(-c5ccccc5)nc4c3)c3c(N)nccn32)C1 [Linsitinib] (partner 1 µM)
relative viability (COR-L 105; first compound 0.01 µM): 0.664 | relative viability (COR-L 105; first compound 0.03162 µM): 1.14 | relative viability (COR-L 105; first compound 0.3162 µM): 0.808 | relative viability (COR-L23; first compound 0.01 µM): 0.948 | relative viability (COR-L23; first compound 0.03162 µM): 1.11 | relative viability (COR-L23; first compound 0.3162 µM): 0.878 | relative viability (EKVX; first compound 0.01 µM): 1.01 | relative viability (EKVX; first compound 0.03162 µM): 1.22 | relative viability (EKVX; first compound 0.3162 µM): 0.969 | relative viability (HARA; first compound 0.01 µM): 0.977 | relative viability (HARA; first compound 0.03162 µM): 1.04 | relative viability (HARA; first compound 0.3162 µM): 0.854 | relative viability (HOP-62; first compound 0.01 µM): 1.09 | relative viability (HOP-62; first compound 0.03162 µM): 0.992 | relative viability (HOP-62; first compound 0.3162 µM): 0.95 | relative viability (NCI-H1355; first compound 0.01 µM): 0.909 | relative viability (NCI-H1355; first compound 0.03162 µM): 0.784 | relative viability (NCI-H1355; first compound 0.3162 µM): 0.724 | relative viability (NCI-H1395; first compound 0.03162 µM): 1.09 | relative viability (NCI-H1395; first compound 0.3162 µM): 0.975 | relative viability (NCI-H1734; first compound 0.01 µM): 0.921 | relative viability (NCI-H1734; first compound 0.03162 µM): 0.814 | relative viability (NCI-H1734; first compound 0.3162 µM): 0.894 | relative viability (NCI-H1755; first compound 0.01 µM): 1.13 | relative viability (NCI-H1755; first compound 0.03162 µM): 1.03 | relative viability (NCI-H1755; first compound 0.3162 µM): 1.06 | relative viability (NCI-H1793; first compound 0.01 µM): 1.04 | relative viability (NCI-H1793; first compound 0.03162 µM): 0.983 | relative viability (NCI-H1793; first compound 0.3162 µM): 0.952 | relative viability (NCI-H1993; first compound 0.01 µM): 0.801 | relative viability (NCI-H1993; first compound 0.3162 µM): 0.724 | relative viability (NCI-H2009; first compound 0.01 µM): 1.17 | relative viability (NCI-H2009; first compound 0.03162 µM): 1.25 | relative viability (NCI-H2009; first compound 0.3162 µM): 1.18 | relative viability (NCI-H2228; first compound 0.01 µM): 0.828 | relative viability (NCI-H2228; first compound 0.03162 µM): 0.727 | relative viability (NCI-H2228; first compound 0.3162 µM): 0.473 | relative viability (NCI-H2347; first compound 0.01 µM): 1.03 | relative viability (NCI-H2347; first compound 0.03162 µM): 0.993 | relative viability (NCI-H2347; first compound 0.3162 µM): 0.926 | relative viability (NCI-H322M; first compound 0.01 µM): 0.919 | relative viability (NCI-H322M; first compound 0.03162 µM): 0.957 | relative viability (NCI-H322M; first compound 0.3162 µM): 1.13 | relative viability (NCI-H358; first compound 0.01 µM): 0.742 | relative viability (NCI-H358; first compound 0.03162 µM): 0.771 | relative viability (NCI-H358; first compound 0.3162 µM): 0.793 | relative viability (NCI-H647; first compound 0.01 µM): 1.48 | relative viability (NCI-H647; first compound 0.03162 µM): 1.17 | relative viability (NCI-H647; first compound 0.3162 µM): 1.26 | relative viability (NCI-H838; first compound 0.01 µM): 1.02 | relative viability (NCI-H838; first compound 0.03162 µM): 1.23 | relative viability (NCI-H838; first compound 0.3162 µM): 0.945 | relative viability (PC-14; first compound 0.01 µM): 0.946 | relative viability (PC-14; first compound 0.03162 µM): 1.16 | relative viability (PC-14; first compound 0.3162 µM): 1.03 | relative viability (SK-MES-1; first compound 0.01 µM): 1.09 | relative viability (SK-MES-1; first compound 0.03162 µM): 1.16 | relative viability (SK-MES-1; first compound 0.3162 µM): 1.12 | relative viability (UMC-11; first compound 0.01 µM): 1.04 | relative viability (UMC-11; first compound 0.03162 µM): 1.04 | relative viability (UMC-11; first compound 0.3162 µM): 1.01
